# Experimental data: patent US20200179285A1, “BIODEGRADABLE MICROPARTICLES FOR SUSTAINED DELIVERY OF ANTI-ANGIOGENIC PEPTIDE” (The Johns Hopkins University, priority 2017, published 2020)
# Tested on: VEGF-induced vascular leakage
# Experiment: VEGF-induced vascular leakage in rabbit eyes
# Assay type: in vivo
# Conditions: single injection, day 60, FIG. 4G
substance,measurement,value
aflibercept,activity against VEGF-induced vascular leakage,no longer showed activity
